Results taken from patent US20050118310A1, “Formulations of compounds derived from natural sources and their use with irradiation for food preservation” (priority 2001, published 2005).
Several values for one entry are separate records, joined by “and”; a condition that tells them apart may be missing. Identical values can stand only once. Marks after values point to notes of the source that are not given here.

What was measured:
[1] = tested on: E. coli; experiment: Shelf life study, E. coli in ground beef irradiated at 0.30 kGy; format: cell-based, Escherichia coli; conditions: stored at 4° C., trans-cinnamaldehyde […], thymol 1.15%, carvacrol […]
Procedure: Irradiation treatments of ground beef samples for D10 and shelf life determination were performed using UC-15B irradiator (MDS-Nordion International Inc., Kanata, ON, Canada) equipped with a ^60 Co source at a dose rate of 14.42 kGy/h). Irradiation doses used for D10 determination were ranged from 0.25 to 0.55 kGy for E. coli, from 0.50 to 2.0 kGy for S. typhi, and from 0.5 to 2.5 kGy for the mixture of indigenous microorganisms of ground beef. The shelf life study was performed on samples irradiated at 0.30, 0.85, and 1.75 kGy for E. coli, S. typhi, and the mixture of indigenous microorganisms of ground beef, respectively. For each active compound concentration tested, a group of non-irradiated samples sened as a control. For D10 determination, samples were analysed immediately after irradiation. For shelf life studies, samples were stored at 4° C. and analysed periodically.
Microbial analysis was performed by homogenising the samples for 2 mn in sterile peptone water (0.1%) using a Lab-blender 400 stomacher (Laboratory Equipment, London, UK). From this mixture, serial dilutions were prepared and appropriate ones were pour-plated in tryptic soy agar (TSA) (Difco, Laboratories, Detroit, Mich., USA) and incubated at 35° C., 24 hours for the numeration of E. coli and S. typhi. For the ground beef broth, the incubation was performed on Plate Count Agar (PCA; Difco) at 35° C. for 48 h for the numeration mesophilic bacteria, and at 7° C. for 10 days for the numeration of psychrotrophic bacteria. Enterobacteriaceae were numerated on Violet Red Bile Glucose Agar (VRBGA; Difco) 35° C. for 48 hours.
A shelf life study was undertaken to evaluate the radiation sensitivity during refrigerated storage conditions. Ground beef samples contaminated with E. coli, S. typhi, or a mixture of indigenous micro-organisms were irradiated in presence or absence of selected active compounds. […]

[2] = tested on: E. coli; experiment: MIC (D10 %) of active compounds in ground beef, E. coli; format: cell-based, Escherichia coli (ATCC 25922); conditions: non-irradiated ground beef, 10^5 CFU/g, stored at 4° C. for 24 hours; % w/w or v/w
Procedure: (§1) Escherichia coli (ATCC 25922) and Salmonella typhi (ATCC 19430) were obtained from the American Type Culture Collection (Rockville, Md., USA) and maintained at −80° C. in Tryptic Soy Broth (TSB; Difco Laboratory, Detroit, Mich.) containing glycerol (10%; v/v). Before each experiment, stock cultures were subcultured through two consecutive 24 h growth cycles in TSB at 35° C. to obtain working cultures containing approximately 10^9 UCF/ml for E. coli and S. typhi.
(§2) Samples were homogenised for 2 min in sterile peptone water (0.1%) using a Lab-blender 400 stomacher (Laboratory Equipment, London, UK). From this mixture, serial dilutions were prepared and appropriate ones were pour-plated in tryptic soy agar (TSA) (Difco, Laboratories, Detroit, Mich., USA) and incubated at 35° C., 24 hours for the numeration of E. coli and S. typhi.
(§3) D10 deteriiination: The kinetics of bacteria destruction by irradiation with or without the active compounds and under different packaging conditions was evaluated by linear regression. Bacterial counts (log CFU/ml) were plotted against irradiation doses or compound concentrations and the D10 values were calculated using SigmaPlot program. Statistical analysis was done using SPSS program. The Duncan test was used with a probability of 0.05.
(§4) The MIC values for the active compounds were determined on the basis of their antibacterial effectiveness in meat. Concentrations retained were those to reduce by 1 log CFU the population of E. coli or S. typhi in ground beef. Ground beef samples weighing 200 g were contaminated with working cultures of E. coli or S. typhi to obtain a final concentration of 10^5 CFU/g. The ground beef samples containing micro-organisms was mixed during 3 minutes at medium speed in a 4L-conmmercial blender (Waring Products, New Hartford, Col., USA) and different concentrations of the active compounds were incorporated, followed by another 3 minutes period mixing. Sterile petri plates (60×15 mm) were filled with ground beef samples containing micro-organisms and different concentrations of active compounds in portion of 25 g each and stored at 4° C. for 24 hours.
(§5) In addition to the above compounds, minimal concentrations of different types of commercial Herbalox® and Duralox® required to reduce by 1 log the bacterial population of E. coli in ground beef were evaluated. […] However, an estimation of the minimal concentration was calculated using the slope of the curve.

[3] = tested on: E. coli; experiment: Irradiation sensitivity of E. coli in chicken breast; format: cell-based, Escherichia coli (ATCC 25922); conditions: trans-cinnamaldehyde 0.050%, thymol 0.038%, tetrasodium pyrophosphate 0.003%, carvacrol 0.029%; for D10(kGy) / Increase in Sensitivity: chicken breast; for D10(kGy): 4° C.; for Increase in Sensitivity: vs control
[4] = tested on: S. typhi; experiment: MIC (D10 %) of active compounds in ground beef, S. typhi; format: cell-based, Salmonella typhi (ATCC 19430); conditions: non-irradiated ground beef, 10^5 CFU/g, stored at 4° C. for 24 hours; % w/w or v/w
Procedure: as §1, §2, §3, §4, §5

[5] = tested on: S. typhi; experiment: Irradiation sensitivity of S. typhi in chicken breast; format: cell-based, Salmonella typhi (ATCC 19430); conditions: for D10(kGy) / Increase in Sensitivity: chicken breast; for D10(kGy): 4° C.; for D10(kGy) / irradiation dose necessary to completely eliminate S. typhi from the chicken breast / Increase in Sensitivity: trans-cinnamaldehyde 0.030%, tetrasodium pyrophosphate 0.003%, carvacrol 0.038%, thymol […]; for factor by which the effect was reduced in the chicken breast: concentration of 1/30 of the MIC value in ground beef, compared with ground beef at MIC; for Increase in Sensitivity: vs control
[6] = tested on: Six pathogenic and spoilage bacteria, commonly found in meat and meat products; experiment: MIC in artificial culture media (1 log reduction); format: cell-based
Procedure: The concentration ot each active compound added to the meat samples was based on results obtained in a previous experiment. These concentrations represent the minimum inhibitory concentrations (MIC) of the active compounds required to be present in artificial culture media in order to reduce by 1 log the number of bacteria in culture. Six pathogenic and spoilage bacteria, commonly found in meat and meat products, were tested. […] The concentration used for carnosine (1.0%) was selected from the literature (Sebranek, 1999). The concentrations of BHA (0.01%), BHT (0.01%), EDTA (100 ppm), and tetrasodium pyrophosphate (0.1%) corresponded to the concentrations recommended by the Canadian Food Inspection Agency (CFIA).
This value was detennined by testing six pathogenic and spoilage bacteria, commonly found in meat and meat products.

Cc1ccc(C(C)C)cc1O [Carvacrol, carvacrol]
days of storage after which complete inhibition was observed [1]: 50 days | D10 (%): minimal concentration of active compound required to reduce E. coli population by 1 log in ground beef [2]: 0.88 ± 0.12^a % | D10(kGy) [3]: 0.145 ± 0.003^c kGy | irradiation dose necessary to completely eliminate E. coli from the chicken breast [3]: 0.72 kGy | Increase in Sensitivity [3]: 0% | D10 (%): minimal concentration of active compound required to reduce S. typhi population by 1 log in ground beef [4]: 1.15 ± 0.02^a % | D10(kGy) [5]: 0.532 ± 0.071^b kGy | factor by which the effect was reduced in the chicken breast [5]: 4 | irradiation dose necessary to completely eliminate S. typhi from the chicken breast [5]: 2.3 kGy | Increase in Sensitivity [5]: 17.3% | Mean values of MIC (concentration required in artificial culture media to reduce by 1 log the number of bacteria) [6]: 0.125%

Cc1ccc(C(C)C)c(O)c1 [Thymol, thymol]
days of storage after which complete inhibition was observed [1]: 15 days | D10 (%): minimal concentration of active compound required to reduce E. coli population by 1 log in ground beef [2]: 1.14 ± 0.05^a % | D10(kGy) [3]: 0.131 ± 0.007^b kGy | irradiation dose necessary to completely eliminate E. coli from the chicken breast [3]: around 0.75 kGy | Increase in Sensitivity [3]: 9.7% | D10 (%): minimal concentration of active compound required to reduce S. typhi population by 1 log in ground beef [4]: 1.60 ± 0.00^ab % | D10(kGy) [5]: 0.570 ± 0.065^b kGy | factor by which the effect was reduced in the chicken breast [5]: 5 | irradiation dose necessary to completely eliminate S. typhi from the chicken breast [5]: 2.8 kGy | Increase in Sensitivity [5]: 11.4% | Mean values of MIC (concentration required in artificial culture media to reduce by 1 log the number of bacteria) [6]: 0.1%

O=C/C=C/c1ccccc1 [Trans-cinnamaldehyde, trans-cinnamaldehyde]
days of storage after which complete inhibition was observed [1]: 15 days | D10 (%): minimal concentration of active compound required to reduce E. coli population by 1 log in ground beef [2]: 1.57 ± 0.10^b % | D10(kGy) [3]: 0.098 ± 0.006^a kGy | irradiation dose necessary to completely eliminate E. coli from the chicken breast [3]: 0.75 kGy | Increase in Sensitivity [3]: 32.4% | D10 (%): minimal concentration of active compound required to reduce S. typhi population by 1 log in ground beef [4]: 0.89 ± 0.03^a % | D10(kGy) [5]: 0.341 ± 0.018^a kGy | factor by which the effect was reduced in the chicken breast [5]: 1.5 | irradiation dose necessary to completely eliminate S. typhi from the chicken breast [5]: 1.4 kGy | Increase in Sensitivity [5]: 47.0% | Mean values of MIC (concentration required in artificial culture media to reduce by 1 log the number of bacteria) [6]: 0.25% and 0.025%
